One experiment addresses NDM-1 (Klebsiella pneumoniae, UniProt C7C422). The experiment is described as follows: biochemical.
The target in another experiment is IMP-1 (Serratia marcescens, UniProt P52699). The experiment is described as follows: β-lactamase inhibition assay, nitrocefin substrate. It is filed as biochemical.
Experiment [1] relates to P. aeruginosa CDC-0356 (KPC-2, PDC-42). The experiment is described as follows: MIC, rescue of β-lactams in MDR clinical isolates. Format: cell-based. The following applies: Pseudomonas aeruginosa, read-out: PIP MIC.
Experiment [2] relates to P. aeruginosa CDC-0457 (VIM). Briefly: MIC, rescue of β-lactams in MDR clinical isolates. It is filed as cell-based. The following applies: Pseudomonas aeruginosa, read-out: PIP MIC.
Experiment [3] concerns K. pneumoniae CDC-0361 (KPC-2, SHV-12, TEM-1). The experiment is described as follows: MIC, rescue of β-lactams in MDR clinical isolates. The following applies: Klebsiella pneumoniae, read-out: PIP MIC. Format: cell-based.
For experiment [4], the system named is K. pneumoniae CDC-0040 (VIM-27, CTX-M-15, SHV-11, OXA-1). Briefly: MIC, rescue of β-lactams in MDR clinical isolates. Format: cell-based. The settings on record: Klebsiella pneumoniae, read-out: PIP MIC.
Another experiment has as its system E. coli CDC-0452 (NDM). The experiment is described as follows: MIC, rescue of β-lactams in MDR clinical isolates. Format: cell-based. The settings on record: Escherichia coli, read-out: PIP MIC.
Experiment [5] has as its system E. coli CDC-0055 (NDM-1, CMY-6, OXA-1). Briefly: MIC, rescue of β-lactams in MDR clinical isolates. It is filed as cell-based. The settings on record: Escherichia coli, read-out: PIP MIC.
In experiment [6] the test system is K. pneumoniae ATCC BAA 1705 (KPC-2). Briefly: MIC, rescue of β-lactams in MDR clinical isolates. It is filed as cell-based. The settings on record: Klebsiella pneumoniae, BAA1705, read-out: PIP MIC.
Experiment [7] deals with K. pneumoniae CDC-0066 (OXA-232, OXA-9, TEM-1A, CTX-M-15, OXA-1). Briefly: MIC, rescue of β-lactams in MDR clinical isolates. The settings on record: Klebsiella pneumoniae, read-out: PIP MIC. It is filed as cell-based.
Another experiment deals with VIM-2 (Escherichia coli, UniProt Q5U7L7). Briefly: β-lactamase inhibition assay, nitrocefin substrate. It is filed as biochemical. The settings on record: in our hands.

Structures are written as SMILES. ≈ marks a conversion by molar mass, not a printed value.

From publication PMC7104248, “Discovery of Taniborbactam (VNRX-5133): A Broad-Spectrum Serine- and Metallo-β-lactamase Inhibitor for Carbapenem-Resistant Bacterial Infections” (Journal of Medicinal Chemistry, 2019) come the findings set out here.

Broadly, the IC50 is the concentration that inhibits the measured activity by half. Low values mean greater potency, high ones weaker potency. The MIC is the lowest concentration that inhibits growth of the organism.

Sequence of NDM-1 (C7C422 29-270 limits assumed): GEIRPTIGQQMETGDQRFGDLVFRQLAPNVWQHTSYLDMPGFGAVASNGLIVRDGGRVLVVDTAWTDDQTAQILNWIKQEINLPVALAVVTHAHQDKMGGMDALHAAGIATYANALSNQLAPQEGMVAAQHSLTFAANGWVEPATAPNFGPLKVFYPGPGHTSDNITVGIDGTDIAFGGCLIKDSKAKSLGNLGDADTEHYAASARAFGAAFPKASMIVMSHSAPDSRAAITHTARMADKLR
Sequence of IMP-1 (P52699 19-246 limits assumed): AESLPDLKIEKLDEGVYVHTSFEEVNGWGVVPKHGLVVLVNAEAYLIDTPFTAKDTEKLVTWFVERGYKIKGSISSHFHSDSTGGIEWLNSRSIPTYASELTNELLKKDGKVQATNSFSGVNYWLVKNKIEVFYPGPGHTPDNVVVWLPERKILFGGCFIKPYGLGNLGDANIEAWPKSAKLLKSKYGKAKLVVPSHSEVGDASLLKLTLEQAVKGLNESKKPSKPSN

On to `O=C(O)C[C@@H]1CC[C@H](NC(=O)Cc2cccs2)B(O)O1` [vaborbactam], for which the IC50 at NDM-1 and against IMP-1 was > 100 µM throughout.

In the case of `CCN1CCN(C(=O)N[C@@H](C(=O)N[C@@H]2C(=O)N3[C@@H]2SC(C)(C)[C@@H]3C(=O)O)c2ccccc2)C(=O)C1=O` [piperacillin], the MIC in experiment [1] is > 128 µg/mL; in experiment [2] it was 64 µg/mL (≈ 124 µM); in experiment [3] it was > 128 µg/mL; in experiment [4] it was > 128 µg/mL; with E. coli CDC-0452 (NDM), > 128 µg/mL; in [5] it was > 128 µg/mL. The MIC in experiment [6] and in experiment [7] was > 128 µg/mL in each case.

In the case of `C[C@]1(Cn2ccnn2)[C@H](C(=O)O)N2C(=O)C[C@H]2S1(=O)=O` [tazobactam], the IC50 on NDM-1 and on IMP-1 was > 100 µM throughout.

Take `NC(=O)[C@@H]1CC[C@@H]2CN1C(=O)N2OS(=O)(=O)O` [avibactam]: the IC50 against NDM-1 and against IMP-1 was > 100 µM in each case.

`CC(=O)N[C@H]1Cc2cccc(C(=O)O)c2OB1O` [compound 1]: the “inhibition of the MBL VIM-2, in words” value on VIM-2 was “micromolar levels”.
